Where two headings read alike, the source gives them in different places.
Assays:
GlyR [1] = system: GlyR; parameters: method as in Li and Yang, 2001; details: ref Li and Yang, 2001; cited from earlier work
homomeric α1 GlyRs = system: homomeric α1 GlyRs; parameters: method as in Uchiyama et al., 1994; details: ref Uchiyama et al., 1994; cited from earlier work
human homomeric α1 GlyRs = assay: Whole-cell patch-clamp of glycine induced currents, modulators in the intracellular buffer, HEK293 cells expressing GlyR α1; format: cell-based; details: for change of Imax at t = 10 min normalized to t = 0: 0.25 μM intracellular modulator, one-way ANOVA; for effect on EC50: 0.25 μM modulator, t = 0; for desensitization of glycine induced currents / effect on EC50 compared to control / Fraction of desensitizing cells / Imax: 0.5 μM modulator in intracellular buffer; for Fraction of desensitizing cells / Imax: mean ± SEM
Procedure: (§1) HEK293 cells were grown in 10 cm tissue culture Petri dishes in Eagle minimal essential medium (Sigma-Aldrich Chemie GmbH, Munich, Germany) supplemented with 10% FBS (Invitrogen, Karlsruhe, Germany) and penicillin/streptomycin (Sigma-Aldrich Chemie GmbH, Munich, Germany) at 5% CO2 and 37°C in a water saturated atmosphere. For electrophysiological experiments, cells were plated on poly-L lysine treated glass coverslips in 6 cm dishes. Transfection was performed 1 day after cell passage using Gen-Carrier (Epoch Lifesciences, Sugarland, TX, USA): 1.3 μg of receptor DNA, 1.3 μg of green fluorescent protein DNA, and 2.6 μl GenCarrier were used, following the manufacturer’s instructions. Measurements were performed 2–4 days after transfection. HEK293 cells used for protein expression and internalization analysis were transfected using a modified calcium phosphate precipitation method. In brief, a mixture of plasmid DNA, CaCl2 (2.5M), 0.1× TE buffer and 2× HBS (50 mM HEPES, 12 mM glucose, 10 mM KCl, 280 mM NaCl, 1.5 mM Na2HPO4) was applied onto the cells for 6 h. A GlyR α1 to GlyR β ratio of 1:2 was used for co-expression. Transfection medium was replaced by fresh medium after 6 h. Immunocytochemical stainings were always done 24 h after transfection, biotinylation experiments were performed 48 h after transfection.
(§2) using a nonlinear algorithm in Microcal Origin. Here, Iglycine is the current amplitude at a given glycine concentration, Isat is the maximum current amplitude at saturating concentrations of glycine, EC50 is the glycine concentration at half-maximal current responses, and nHill is the Hill coefficient. Currents from each individual cell were normalized to the maximum response at saturating glycine concentrations. Significance of differences between EC50 values were determined using one-way ANOVA with p ≤ 0.05 (*) and p ≤ 0.01 (**) taken as significant. In all experiments, EC50 values were determined for each individual cell from a non-linear fit of dose response data to the logistic equation. An unweighted average ± standard error (SEM) was calculated from all individual EC50 values, without considering the fitting errors.
(§3) For time course analysis, a series of EC50 data was recorded from each cell. The first concentration-response curve, defined as t = 0, was recorded immediately after establishing the whole-cell configuration and positioning the cell in front of the delivery tube. […] Further recordings were made at t = 3 min, t = 6 min and t = 10 min (not attained with all cells). Time-independent recordings were taken at t = 0, and values of EC50 and Imax in the presence of PKA- or PKC modulators were normalized to control (no modulator). For time course analysis, responses were normalized to the control value at t = 0. Patch-clamp experiments were carried out on different dates and using different batches of HEK 293 cells. Since control EC50 values varied between different days of plating and between batches of cells, measurements with kinase modulators were always compared to control measurements recorded on the same day and from the same batch of cells.

[2] = system: human heteromeric α1-β GlyRs; assay: Whole-cell patch-clamp of glycine induced currents, modulators in the intracellular buffer, HEK293 cells expressing GlyR α1-β; format: cell-based; details: for desensitization of glycine induced currents / effect on EC50 compared to control / Fraction of desensitizing cells / Imax: 0.5 μM modulator in intracellular buffer; for Fraction of desensitizing cells / Imax: mean ± SEM
Procedure: as §1, §2, §3

GlyR α1-β = assay: Receptor internalization assay (pre-labeled GlyRs, confocal microscopy) in HEK293 cells; format: cell-based, human; details: 200 nM modulator, 15 min, 37°C; untreated cells 1.7 ± 0.4 dots/cell; ± SEM
Procedure: To stain internalized GlyRs, GlyR α1 was cotransfected with GlyR β into HEK293 cells grown on glass cover slips. Internalization experiments were performed 24 h post-transfection. Live cells co-expressing GlyR α1-β receptors were labeled with the α1-specific monoclonal antibody Mab2b (1:500 in Earle’s minimal essential medium for 1 h at 4°C). Earle’s minimal essential medium was supplemented with 10% fetal calf serum, […] GlutaMAX, 100 mM sodium pyruvate, and 50 U/ml penicillin/streptomycin (Thermo Fisher Scientific, Waltham, MA, USA). Mab2b was purchased from Synaptic Systems, Göttingen, Germany. Following three washing steps in phosphate-buffered saline (PBS, pH 7.4), cells were incubated with goat-anti-mouse-Cy3 secondary antibody again for 1 h at 4°C (dilution of secondary antibody 1:500 in Earle’s minimal essential medium, Dianova, Hamburg Germany). Glass cover slips with pre-labeled GlyRs were transferred into a 24-well plate containing 500 μl of Earle’s minimal essential medium with PKA and PKC modulators (200 nM final concentration each; Forskolin, H-89, PMA, Staurosporine aglycon, all from Sigma-Aldrich Chemie GmbH, Munich, Germany). Cells were incubated with modulators for 15 min to allow receptor internalization. Time point zero (0 min) was taken as a negative internalization control to ensure health of HEK293 cells (pre-labeling of GlyRs at 4°C inhibits internalization). Following incubation with PKA and PKC modulators, cells were stained with a second secondary antibody (donkey-anti-goat-Dyelight488, 1:250 in Earle’s minimal essential medium, Dianova, Hamburg, Germany) for 30 min at 4°C to label receptor retained at the cellular surface. Cells were fixed with 4% paraformaldehyde, 4% sucrose in PBS for 15 min at 4°C, washed three times in PBS and stained with 4′,6-diamidino-2-phenylindole (DAPI, Thermo Fisher Scientific, Waltham, MA, USA) to label the cell nuclei for 5 min at 4°C (1:5000 in PBS). Coverslips were washed again with PBS and Aqua Dest and mounted on glass slides using mowiol.
The images were obtained using an inverted Olympus IX81 microscope equipped with an Olympus FV1000 confocal laser scanning system, a FVD10 SPD spectral detector and diode lasers of 495 nm (Alexa488) and 550 nm (Cy3; Olympus, Tokyo, Japan), and an Olympus UPLSAPO 60× (oil, numerical aperture: 1.35) objective. Adobe Photoshop (Adobe, San Jose, CA, USA) or ImageJ (1.51)/Fiji^1 were used for image analysis.

GlyRs = system: GlyRs; parameters: method as in Salceda and Aguirre-Ramirez, 2005; details: 10 μM Forskolin; ref Salceda and Aguirre-Ramirez, 2005; cited from earlier work
Igly = system: Igly; parameters: method as in Min et al., 1996; details: ref Min et al., 1996; cited from earlier work
nAChR = system: nAChR; parameters: method as in Wagoner and Pallotta, 1988; details: cAMP-independent; ref Wagoner and Pallotta, 1988; cited from earlier work
[3] = system: glycine activated chloride currents; parameters: method as in Ren et al., 1998; details: added to the pipette solution; ref Ren et al., 1998; cited from earlier work
[4] = system: GABA- and Gly-gated currents; parameters: method as in Machu et al., 2006; details: oocytes; ref Machu et al., 2006; cited from earlier work
[5] = system: GABA- and Gly-gated currents; parameters: method as in Machu et al., 2006; details: HEK293 cells, ref Machu et al., 2006, cited from earlier work
GlyR [6] = system: GlyR; parameters: method as in Vaello et al., 1994; details: ref Vaello et al., 1994; cited from earlier work
glycine currents = system: glycine currents; parameters: method as in Tapia et al., 1997; details: ref Tapia et al., 1997; cited from earlier work
GlyRα1 = system: GlyRα1; parameters: method as in Huang et al., 2007; details: ref Huang et al., 2007; cited from earlier work
HEK293 cells = assay: Tolerance of HEK293 cells to intracellular kinase modulators during patch-clamp; details: intracellular concentration raised to 1 μM
Procedure: Whole-cell recording experiments were performed using a HEKA EPC10 amplifier (HEKA Electronics, Lambrecht, Germany) controlled by Pulse software (HEKA). Recording pipettes were pulled from borosilicate glass (World Precision Instruments, Berlin, Germany) using a Sutter P-97 horizontal puller (Sutter, Novato, CA, USA). […] Series resistance, as well as slow and fast capacitance were compensated using the EPC10 circuitry. The different protein kinase modulators were dissolved in intracellular buffer at a concentration of 0.5 μM. For studies of concentration- and time-dependence, kinase modulators were used at concentrations of 0.1 μM and 0.25 μM. Current responses were measured at room temperature (21–23°C) at a holding potential of −50 mV. Solutions were applied using an Octaflow system (NPI electronics, Tamm, Germany), where cells were bathed in a laminar flow of buffer, giving a time resolution for solution exchange and re-equilibration of about 100 ms. The external buffer consisted of 135 mM NaCl, 5.5 mM KCl, 2 mM CaCl2, 1.0 mM MgCl2 and 10 mM Hepes (pH adjusted to 7.4 with NaOH); the internal buffer was 140 mM CsCl, 1.0 mM CaCl2, 2.0 mM MgCl2, 5.0 mM EGTA and 10 mM Hepes (pH adjusted to 7.2 with CsOH).

SMILES | change of Imax at t = 10 min normalized to t = 0 (human homomeric α1 GlyRs) | effect on EC50 (human homomeric α1 GlyRs) | desensitization of glycine induced currents (human homomeric α1 GlyRs; GlyR α1) | effect on EC50 compared to control (human homomeric α1 GlyRs; GlyR α1) | Fraction of desensitizing cells (human homomeric α1 GlyRs; GlyR α1) | Imax (human homomeric α1 GlyRs; GlyR α1) | desensitization of glycine induced currents [2] | effect on EC50 compared to control [2] | Fraction of desensitizing cells [2] | Imax [2] | internalized receptor (GlyR α1-β) | other results
C=C[C@@]1(C)CC(=O)[C@@H]2[C@@]3(C)CCCC(C)(C)[C@@H]3[C@H](O)[C@H](OC(C)=O)[C@@]2(C)O1 [1,9-dideoxy Forskolin] | – | – | – | – | – | – | – | – | – | – | – | effect on desensitization of whole cell responses (GlyR [1]): accelerates the desensitization effectively
CCCCCCCCCCCCCC(=O)O[C@@H]1[C@@H](C)[C@@]2(O)[C@@H](C=C(CO)C[C@@]3(O)C(=O)C(C)=C[C@@H]23)[C@@H]2C(C)(C)[C@]12OC(C)=O [4-alpha-PMA] | – | – | – | – | – | – | – | – | – | – | – | effect on glycine currents (homomeric α1 GlyRs): did not affect the glycine currents
CCCCCCCCCCCCCC(=O)O[C@@H]1[C@@H](C)[C@@]2(O)[C@@H](C=C(CO)C[C@]3(O)C(=O)C(C)=C[C@@H]23)[C@@H]2C(C)(C)[C@]12OC(C)=O [4-beta-PMA] | – | – | – | – | – | – | – | – | – | – | – | effect on glycine currents (homomeric α1 GlyRs): Reduced responses
C=C[C@@]1(C)CC(=O)[C@]2(O)[C@@]3(C)[C@@H](O)CCC(C)(C)[C@@H]3[C@H](O)[C@H](OC(C)=O)[C@@]2(C)O1 [Forskolin] | significantly reduced | increased EC50 | faster desensitization | significant increase | 0.57 ± 0.12 | 1.20 ± 0.24 nA | faster desensitization | significant increase | 0.52 ± 0.07 | 0.99 ± 0.24 nA | 6.9 ± 1.5 dots/cell | reduction of specific binding of both radioligands (GlyRs): 30%–90%; effect on desensitization of whole cell responses (GlyR [1]): markedly accelerates desensitization; effect on Igly (Igly): inhibited Igly potentiation; effect on desensitization of the nAChR (nAChR): enhancement of desensitization
O=S(=O)(NCCNC/C=C/c1ccc(Br)cc1)c1cccc2cnccc12 [H-89] | not significant | opposite effect | non-desensitizing current responses | decreased EC50 values | 0.07 ± 0.03 | 1.91 ± 0.57 nA | non-desensitizing current responses | decreased EC50 values | 0.19 ± 0.09 | 1.37 ± 0.28 nA | 4.0 ± 1.0 dots/cell | effect on Igly (Igly): potentiation of Igly; effect on ATP induced run-up of the glycine current [3]: blocked
CCCCCCCCCCCCCC(=O)O[C@@H]1[C@@H](C)[C@@]2(O)[C@@H](C=C(CO)C[C@]3(O)C(=O)C(C)=C[C@@H]23)[C@@H]2C(C)(C)[C@]12OC(C)=O [PMA, phorbol-12-myristate-13-acetate] | significantly reduced | increased EC50 | no effect on receptor desensitization | increased | 0.05 ± 0.05 | 2.30 ± 0.74 nA | no effect on receptor desensitization | not statistically significant | 0.27 ± 0.08 | 1.26 ± 0.27 nA | 3.9 ± 0.7 dots/cell | peak amplitude of GABA- and Gly-gated currents [4]: large, reproducible decrease; modulation of receptors ([5]; 35°C): decreased the function; modulation of receptors ([5]; room temperature): ineffective; effect on glycinergic currents (GlyR [6]): decreased glycinergic currents; effect on glycine currents (glycine currents): reduce the amplitude of glycine currents; start of receptor internalization (GlyRα1): ≤ 15 min
O=C1NCc2c1c1c3ccccc3[nH]c1c1[nH]c3ccccc3c21 [Staurosporine aglycon] | not significant | opposite effect | slow or no desensitization | decrease of half maximum values | 0.10 ± 0.05 | 1.70 ± 0.29 nA | slow or no desensitization | decrease of half maximum values | 0.06 ± 0.04 | 1.11 ± 0.20 nA | 2.3 ± 0.5 dots/cell | effect of 4-beta-PMA in the presence of Staurosporine aglycon (homomeric α1 GlyRs): the effect was inhibited; cell survival (HEK293 cells): cells did not survive
NCC(=O)O [glycine] | – | – | – | – | – | – | – | – | – | – | – | EC50 (human homomeric α1 GlyRs; GlyR α1, absence of modulators, n = 11): 37.4 ± 3.7 µM; EC50 ([2]; absence of modulators, n = 8): 45.4 ± 6 µM

Reference: article PMC5961436, “PKA and PKC Modulators Affect Ion Channel Function and Internalization of Recombinant Alpha1 and Alpha1-Beta Glycine Receptors” (Frontiers in Molecular Neuroscience, 2018)
